The values that follow are results of earlier work, collected in patent publication US9636319B1, “Fumarate ester dosage forms” (priority 2015, dated 2017).

Molecules are shown by their SMILES. Structures can show the parent of a compound that is named as a salt.

For data set [1], the system named is Nuclear factor (erythroid-derived 2)-like 2 (Nrf2) pathway. Conditions: in vitro and in vivo in animals and humans.
Another data set relates to Human plasma protein. As to conditions: independent of concentration.

In the case of `COC(=O)/C=C/C(=O)OC` [DMF, dimethyl fumarate], the “quantifiability in plasma following oral administration” value (human, in vivo, po) was “not quantifiable”. The “Nrf2 pathway activation” value in data set [1] is given as “activate”.
On to `COC(=O)/C=C/C(=O)O` [MMF, monomethyl fumarate], for which, under “MMF in plasma, before the delay by a meal”, the Tmax without meal was 2.0 h. Further, the Tmax with meal (MMF in plasma, high-fat, high-calorie meal) was 5.5 h. For the setting “[…]”, the “median Tmax of MMF” value is 2 to 2.5 h. The “dose dependence of Cmax and AUCoverall” value (dose range 120 mg to 360 mg) is listed as “increased approximately dose proportionally”. Moreover, the “reduction in the incidence of flushing” value (fed / postprandial state) is recorded as “approximately 25%”. Further, where the note is “high-fat, high-calorie meal”, the “effect of a meal on AUC” value is listed as “did not affect”. Further, under “high-fat, high-calorie meal, MMF in plasma”, the “decrease of Cmax by a meal” value was 40%. Further, where the note is “human, in vivo”, the “circulating MMF at 24 hours” value is listed as “no circulating MMF is present at 24 hours in the majority of individuals” and the terminal half-life entry is recorded as “approximately 1 hour”. Also, the “involvement of the cytochrome P450 (CYP) system in metabolism” value (metabolism through the tricarboxylic acid (TCA) cycle) is listed as “no involvement”. Also, the “Human plasma protein binding” value in the data set on Human plasma protein is 27-45%.
